Experimental data published in patent US10513519B2, “Solid forms of (1S,4S)-4-(2-(((3S,4R)-3-fluorotetrahydro-2H-pyran-4-yl)amino)-8-((2,4,6-trichlorophenyl)amino)-9H-purin-9-yl)-1-methylcyclohexane-1-carboxamide and methods of their use” (Signal Pharmaceuticals, LLC, priority 2016, dated 2019).

Tested on: cancer cell lines
Test: Multiplexed cytotoxicity assay: cell proliferation (relative cell count IC50, GI50)
Assay type: cell-based
Conditions: Homo sapiens
Protocol: (§1) Cells are grown in RPMI1640, 10% FBS, 2 mM L-alanyl-L-Glutamine, 1 mM Na pyruvate or a special medium in a humidified atmosphere of 5% CO2 at 37° C. Cells are seeded into 384-well plates and incubated in a humidified atmosphere of 5% CO2 at 37° C. Compounds are added 24 h post cell seeding. At the same time, a time zero untreated cell plate is generated. After a 72 hour incubation period, cells are fixed and stained with fluorescently labeled antibodies and nuclear dye to allow visualization of nuclei, apoptotic cells and mitotic cells. Apoptotic cells are detected using an anti-active caspase-3 antibody. Mitotic cells are detected using an anti phospho-histone-3 antibody. Compounds are serially diluted 3.16-fold and assayed over 10 concentrations in a final assay concentration of 0.1% DMSO from the highest test concentration of 10 μM. Automated fluorescence microscopy was carried out using a Molecular Devices ImageXpress Micro XL high-content imager, and images are collected with a 4× objective.
Sixteen-bit TIFF images are acquired and analyzed with MetaXpress 5.1.0.41 software. Cell proliferation is measured by the signal intensity of the incorporated nuclear dye. The cell proliferation assay output is referred to as the relative cell count. To determine the cell proliferation end point, the cell proliferation data output is transformed to percentage of control (POC) using the following formula: POC=relative cell count(compound wells)/relative cell count(vehicle wells)×100
GI50 is the concentration needed to reduce the observed growth by half. This is the concentration that inhibits the growth to the level midway between growth in untreated cells and the number of cells seeded in the well (Time zero value). The IC50 values are calculated using nonlinear regression to fit data to a sigmoidal 4 point, 4 parameter One-Site dose response model, where: y(fit)=A+[(B−A)/(1+((C/x)^D))].
as §1, with “In another experiment, cells were grown” for “Cells are grown”, “Cells were” for “Cells are”, “Compounds were” for “Compounds are”, “plate was” for “plate is”, “cells were” for “cells are”, “images were” for “images are”
Sixteen-bit TIFF images were acquired and analyzed with MetaXpress 5.1.0.41 software. Cell proliferation was measured by the signal intensity of the incorporated nuclear dye. The cell proliferation assay output was referred to as the relative cell count. To determine the cell proliferation end point, the cell proliferation data output was transformed to percentage of control (POC) using the following formula: POC=relative cell count(compound wells)/relative cell count(vehicle wells)×100
GI50 refers to the concentration needed to reduce the observed growth by half. This corresponds to the concentration that inhibits the growth to the level midway between growth in untreated cells and the number of cells seeded in the well (Time zero value). The IC50 values were calculated using nonlinear regression to fit data to a sigmoidal 4 point, 4 parameter One-Site dose response model, where: y(fit)=A+[(B−A)/(1+((C/x)^D))].

[1] = BV-173, BV173 (Hematopoietic and lymphoid, Leukemia)
[2] = BXPC-3, 72 h, BXPC3, Pancreas, 72 h
[3] = BeWo, 72 h, Female GU, Placenta
[4] = C-4-II, C4II (Female GU, Cervix)
[5] = C-33-A, C33A (Female GU, Cervix)
[6] = CA46, CA46 (Hematopoietic and lymphoid, Lymphoma)
[7] = CAL-62, 72 h, CAL62, Endocrine, Thyroid, 72 h
[8] = CAPAN-1, 72 h, CAPAN1, Pancreas, 72 h
[9] = CCF-STTG1, CCFSTTG1 (CNS, Glioma)
[10] = CCRF-CEM, CCRFCEM (Hematopoietic and lymphoid, Leukemia)
[11] = CFPAC-1, 72 h, CFPAC1, Pancreas, 72 h
[12] = CGTH-W-1, 72 h, CGTHW1, Endocrine, Thyroid, 72 h
[13] = CHP-212, 72 h, CHP212, CNS, Neuroblastoma, 72 h
[14] = COLO-320-HSR, COLO320HSR (Colon)
[15] = COLO-829, COLO829 (Skin, Melanoma)
[16] = COR-L23, 72 h, CORL23, Lung, NSCLC, 72 h
[17] = COR-L105, 72 h, CORL105, Lung, NSCLC, 72 h
[18] = CRO-AP2, CROAP2 (Hematopoietic and lymphoid, Lymphoma)
[19] = Ca-Ski, 72 h, CASKI, Female GU, Ovary
[20] = Calu-1, 72 h, CALU1, Lung, NSCLC, 72 h
[21] = Calu-6, 72 h, CALU6, Lung, NSCLC, 72 h
[22] = Caov-3, 72 h, CAOV3, Female GU, Ovary, 72 h
[23] = Capan-2, 72 h, CAPAN2, Pancreas, 72 h
[24] = ChaGo-K-1, 72 h, CHAGOK1, Lung, NSCLC, 72 h
[25] = D283 Med, D283MED (CNS, Medulloblastoma)
[26] = DBTRG-05MG, DBTRG05MG (CNS, Glioma)
[27] = DMS-53, 72 h, DMS53, Lung, SCLC, 72 h
[28] = DMS-114, 72 h, DMS114, Lung, SCLC, 72 h
[29] = DMS-273, 72 h, DMS273, Lung, SCLC, 72 h
[30] = DOHH-2, DOHH2 (Hematopoietic and lymphoid, Lymphoma)
[31] = DU-145, 72 h, DU145, Prostate, 72 h
[32] = Daoy, DAOY (CNS, Medulloblastoma)
[33] = Daudi, DAUDI (Hematopoietic and lymphoid, Lymphoma)
[34] = Detroit 562, DETROIT562 (Head and Neck)
[35] = DoTc2-4510, DOTC24510 (Female GU, Cervix)
[36] = GA-10, GA10 (Hematopoietic and lymphoid, Lymphoma)
[37] = HEC-1-A, 72 h, HEC1A, Female GU, Uterus
[38] = HEL 92.1.7, HEL9217 (Hematopoietic and lymphoid, Leukemia)
[39] = HPAF-II, 72 h, HPAFII, Pancreas
[40] = HT-1080, 72 h, HT1080, Soft Tissue, Sarcoma, 72 h
[41] = Hs 294T, HS294T (Skin, Melanoma)
[42] = Hs 695T, HS695T (Skin, Melanoma)
[43] = HuP-T4, 72 h, HUPT4, Pancreas, 72 h
[44] = J-RT3-T3-5, JRT3T35 (Hematopoietic and lymphoid, Leukemia)
[45] = JEG-3, 72 h, JEG3, Female GU, Placenta, 72 h

C[C@]1(C(N)=O)CC[C@@H](n2c(Nc3c(Cl)cc(Cl)cc3Cl)nc3cnc(N[C@@H]4CCOC[C@H]4F)nc32)CC1 [Compound 1, cis-4-[2-{[(3S,4R)-3-fluorooxan-4-yl]amino}-8-(2,4,6-trichloroanilino)-9H-purin-9-yl]-1-methylcyclohexane-1-carboxamide]
GI50 (BT-474, BT474 (Breast)): > 10000 nM
IC50 (BT-474, BT474 (Breast)): > 10000 nM
GI50 (BT-549, BT549 (Breast)): > 10000 nM
IC50 (BT-549, BT549 (Breast)): > 10000 nM
GI50 [1]: 1100 nM
IC50 [1]: > 10000 nM
GI50 [2]: 36.9 nM
IC50 [2]: 45.5 nM
GI50 [3]: 5160 nM
IC50 [3]: 5690 nM
GI50 [4]: > 10000 nM
IC50 [4]: > 10000 nM
GI50 [5]: 191 nM
IC50 [5]: 407 nM
GI50 [6]: 14.6 nM
IC50 [6]: 21.3 nM
GI50 (CAKI-1, CAKI1 (Kidney)): 91.4 nM
IC50 (CAKI-1, CAKI1 (Kidney)): 151 nM
GI50 (CAKI-2, CAKI2 (Kidney)): 139 nM
IC50 (CAKI-2, CAKI2 (Kidney)): 193 nM
GI50 (CAL-27, CAL27 (Head and Neck)): 59.2 nM
IC50 (CAL-27, CAL27 (Head and Neck)): 66.1 nM
GI50 [7]: 83.6 nM
IC50 [7]: 93.6 nM
GI50 (CAMA-1, CAMA1 (Breast)): 298 nM
IC50 (CAMA-1, CAMA1 (Breast)): 2240 nM
GI50 [8]: 105 nM
IC50 [8]: > 10000 nM
GI50 [9]: > 10000 nM
IC50 [9]: > 10000 nM
GI50 [10]: 5030 nM
IC50 [10]: 6050 nM
GI50 [11]: > 10000 nM
IC50 [11]: > 10000 nM
GI50 [12]: 54.7 nM
IC50 [12]: 60.5 nM
GI50 (CHL-1, CHL1 (Skin, Melanoma)): 103 nM
IC50 (CHL-1, CHL1 (Skin, Melanoma)): 117 nM
GI50 [13]: 6.6 nM
IC50 [13]: 16.5 nM
GI50 (COLO 201, COLO201 (Colon)): 12.8 nM
IC50 (COLO 201, COLO201 (Colon)): 17.2 nM
GI50 (COLO 205, COLO205 (Colon)): 9.5 nM
IC50 (COLO 205, COLO205 (Colon)): 11.7 nM
GI50 (COLO 320DM, COLO320DM (Colon)): 9110 nM
IC50 (COLO 320DM, COLO320DM (Colon)): > 10000 nM
GI50 [14]: 4190 nM
IC50 [14]: 4440 nM
GI50 [15]: 12.1 nM
IC50 [15]: 34.3 nM
GI50 [16]: 23.8 nM
IC50 [16]: 28.3 nM
GI50 [17]: 16.5 nM
IC50 [17]: 41.4 nM
GI50 [18]: 996 nM
IC50 [18]: 2580 nM
GI50 [19]: 6760 nM
IC50 [19]: > 10000 nM
GI50 [20]: 96.7 nM
IC50 [20]: 149 nM
GI50 [21]: 46.3 nM
IC50 [21]: 83 nM
GI50 [22]: 429 nM
IC50 [22]: > 10000 nM
GI50 [23]: 136 nM
IC50 [23]: 291 nM
GI50 [24]: > 10000 nM
IC50 [24]: > 10000 nM
GI50 [25]: 2560 nM
IC50 [25]: 7550 nM
GI50 [26]: 43.2 nM
IC50 [26]: 98.4 nM
GI50 (DLD-1, DLD1 (Colon)): 162 nM
IC50 (DLD-1, DLD1 (Colon)): 197 nM
GI50 [27]: 998 nM
IC50 [27]: > 10000 nM
GI50 [28]: 68.8 nM
IC50 [28]: 600 nM
GI50 [29]: 5960 nM
IC50 [29]: 6790 nM
GI50 [30]: 5540 nM
IC50 [30]: 5790 nM
GI50 [31]: 73.8 nM
IC50 [31]: 96.5 nM
GI50 [32]: 749 nM
IC50 [32]: 1090 nM
GI50 [33]: 17.7 nM
IC50 [33]: > 10000 nM
GI50 [34]: 347 nM
IC50 [34]: > 10000 nM
GI50 [35]: 40 nM
IC50 [35]: 132 nM
GI50 (EFM-19, EFM19 (Breast)): 4200 nM
IC50 (EFM-19, EFM19 (Breast)): > 10000 nM
GI50 (FaDu, FADU (Head and Neck)): 435 nM
IC50 (FaDu, FADU (Head and Neck)): 787 nM
GI50 (G-361, G361 (Skin, Melanoma)): 102 nM
IC50 (G-361, G361 (Skin, Melanoma)): 150 nM
GI50 (G-401, G401 (Kidney)): 77.4 nM
IC50 (G-401, G401 (Kidney)): 86 nM
GI50 (G-402, G402 (Kidney)): 50.4 nM
IC50 (G-402, G402 (Kidney)): 92.5 nM
GI50 [36]: 46.8 nM
IC50 [36]: 56.7 nM
GI50 (HCT-15, HCT15 (Colon)): 1970 nM
IC50 (HCT-15, HCT15 (Colon)): 2230 nM
GI50 (HCT-116, HCT116 (Colon)): 19.4 nM
IC50 (HCT-116, HCT116 (Colon)): 20.4 nM
GI50 [37]: 1800 nM
IC50 [37]: 2810 nM
GI50 [38]: 4620 nM
IC50 [38]: 8230 nM
GI50 (HMCB, HMCB (Skin, Melanoma)): 72.4 nM
IC50 (HMCB, HMCB (Skin, Melanoma)): 113 nM
GI50 [39]: 13 nM
IC50 [39]: 17.5 nM
GI50 (HRT-18, HRT18 (Colon)): 77.5 nM
IC50 (HRT-18, HRT18 (Colon)): 81.9 nM
GI50 (HT1197, HT1197 (Bladder)): 444 nM
IC50 (HT1197, HT1197 (Bladder)): > 10000 nM
GI50 (HT-29, HT29 (Colon)): 12.9 nM
IC50 (HT-29, HT29 (Colon)): 16.7 nM
GI50 [40]: 64.8 nM
IC50 [40]: 72.7 nM
GI50 (HT-1376, HT1376 (Bladder)): 792 nM
IC50 (HT-1376, HT1376 (Bladder)): 3480 nM
GI50 (HeLa, HELA (Female GU, Cervix)): 6750 nM
IC50 (HeLa, HELA (Female GU, Cervix)): 8710 nM
GI50 (HepG2, HEPG2 (Liver)): 22.4 nM
IC50 (HepG2, HEPG2 (Liver)): 64.3 nM
GI50 [41]: 50.7 nM
IC50 [41]: 70.6 nM
GI50 (Hs 683, HS683 (CNS, Glioma)): 148 nM
IC50 (Hs 683, HS683 (CNS, Glioma)): 305 nM
GI50 [42]: 36.3 nM
IC50 [42]: 160 nM
GI50 (Hs746T, 72 h, Stomach): 39.6 nM
IC50 (Hs746T, 72 h, Stomach): 122 nM
GI50 (Hs-578T, HS578T (Breast)): 153 nM
IC50 (Hs-578T, HS578T (Breast)): 837 nM
GI50 (HuCCT-1, HUCCT1 (Liver)): 53.7 nM
IC50 (HuCCT-1, HUCCT1 (Liver)): 63.3 nM
GI50 [43]: 43.4 nM
IC50 [43]: 50.5 nM
GI50 (HuTu80, HUTU80 (Duodenum)): 57 nM
IC50 (HuTu80, HUTU80 (Duodenum)): 69.5 nM
GI50 [44]: 3580 nM
IC50 [44]: 4780 nM
GI50 [45]: 6340 nM
IC50 [45]: 7750 nM
